Two molecules from ChEMBL document CHEMBL1914361, “Shishicrellastatins, inhibitors of cathepsin B, from the marine sponge Crella (Yvesia) spinulata” (Bioorg Med Chem, 2011) can be followed below.

SMILES strings stand for the structures. pIC50: −log10 of the molar value.

This assay concerns the target Cathepsin B (Bos taurus, UniProt P07688). Description: Inhibition of bovine cathepsin B after 1 hr by fluorescence assay.

The term pIC50 denotes −log10 of the IC50, conventionally taken in molar units. Read a low pIC50 as a large IC50. As for `C[C@H]([C@@H]1C[C@H]2C[C@](C)(OC2(C)C)[C@@H](CC[C@@H](C)[C@H]2CC[C@H]3C4=C(CC[C@]23C)[C@@]2(C)C[C@H](OS(=O)(=O)O)[C@@H](OS(=O)(=O)O)[C@H](C)C2=CC4)O1)[C@H]1CC[C@H]2C3=C(CC[C@]12C)[C@]12CC[C@](O)(OC1)[C@@H](C)[C@@H]2[C@@H](OS(=O)(=O)O)C3` [SHISHICRELLASTATIN A], the pIC50 is 5.17.

For `C[C@H]([C@@H]1C[C@H]2C[C@](C)(OC2(C)C)[C@@H](CC[C@@H](C)[C@H]2CC=C3C4=C(CC[C@@]32C)[C@@]2(C)C[C@H](OS(=O)(=O)O)[C@@H](OS(=O)(=O)O)[C@H](C)C2=CC4)O1)[C@H]1CC[C@H]2C3=C(CC[C@]12C)[C@]12CC[C@](O)(OC1)[C@@H](C)[C@@H]2[C@@H](OS(=O)(=O)O)C3` [SHISHICRELLASTATIN B], the pIC50 was 5.17.
